Patent US8946260B2, “17α-hydroxylase/C17,20-lyase inhibitors” (Novartis AG, priority 2010, dated 2015)

The compounds below were run against T1, recombinant Human CYP17 enzyme (17-20 lyase) (Homo sapiens, UniProt P05093) (assay: Cytochrome P450, 17-20 lyase (CYP17-lyase) assay, 17-α-hydroxy pregnenolone [21-3H] as substrate). Conditions: human CYP17 lyase; substrate 0.25 μM; room temperature, 90 minutes.
T1 construct: made in house; host or cells: A549 cells, adenoviral expression system; purified cell membrane preparations
T1 sequence (P05093 1-508): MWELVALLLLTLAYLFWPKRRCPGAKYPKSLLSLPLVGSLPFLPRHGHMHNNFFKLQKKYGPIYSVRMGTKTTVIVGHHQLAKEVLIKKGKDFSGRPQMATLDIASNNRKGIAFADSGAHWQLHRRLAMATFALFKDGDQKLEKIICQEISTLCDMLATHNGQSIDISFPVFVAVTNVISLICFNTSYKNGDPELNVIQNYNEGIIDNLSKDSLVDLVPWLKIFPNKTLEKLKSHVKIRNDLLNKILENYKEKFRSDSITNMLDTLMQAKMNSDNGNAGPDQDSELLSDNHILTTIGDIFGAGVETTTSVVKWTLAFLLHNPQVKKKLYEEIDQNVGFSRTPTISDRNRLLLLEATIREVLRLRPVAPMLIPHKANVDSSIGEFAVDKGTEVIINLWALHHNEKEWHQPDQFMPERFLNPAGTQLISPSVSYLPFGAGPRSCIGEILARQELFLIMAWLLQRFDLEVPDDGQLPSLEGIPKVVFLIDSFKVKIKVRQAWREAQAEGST
Type: biochemical
Source text: 1) Cytochrome P450, 17-20 Lyase (CYP17-Lyase) Assay Development Using Recombinant Human CYP17 Enzyme and 17-α-Hydroxy Pregnenolone [21-3H] as the Substrate.
Cytochrome P450, 17-α-Hydroxylase, 17-20 lyase (CYP17) is a multi functional enzyme that plays a key role in the biosynthesis of steroid hormones. It catalyses both conventional hydroxylation and also the carbon-carbon bond cleavage reactions (Peter Lee-Robichaud et al, Biochem. J, (1997) 321, 857-63). In the hydroxylation reaction, it converts progesterone and pregnenolone to the corresponding hydroxylated products 17-α-hydroxy progesterone and 17-α-hydroxy pregnenolone. In the lyase reaction, it catalyzes the conversion of these hydroxylated substrates to Androstenedione and Dehydroepiandrosterone (DHEA) respectively. In the Cyp17 lyase assay described here, the conversion of 17-α-hydroxy pregnenolone to Dehydroepiandrosterone and acetic acid is being monitored.
Assay method was adopted from a published protocol with some modifications to suit our requirements (Dmitry N Grigoryev et al, Analytical Biochemistry, (1999) 267, 319-330). The conversion of 17-α-hydroxy pregnenolone to Dehydroepiandrosterone is accompanied by the release of acetic acid. In the Cyp17 lyase assay, 17-α-hydroxy pregnenolone labeled with tritium (3H) at position 21 is used as the substrate. Chloroform extraction removes the radioactive steroids and acetic acid is taken into aqueous layer. The tritiated acetic acid released in the assay thus extracted is quantified to determine the enzyme activity.
Initial buffer conditions were, 50 mM Phosphate buffer, pH 7.5 was used as the starting buffer for Cyp17 lyase activity based on the data published in US patent publication No. US2004/0198773 A1. […] Human Cyp 17 gene was cloned and expressed in Adenoviral expression system in A549 cell lines. The purified cell membrane preparations were used as the source for Human CYP17 enzyme. Total protein concentration: 8 mg/mL.
For routine screening, the assay was set up with 16 μg of enzyme in 50 μL reaction volume. 17α-hydroxy pregnenolone [21-3H] was added to a final concentration of 0.25 μM. NADPH is used at a final concentration of 4.2 mM. Total reaction volume was made up to 50 μL with 50 mM Phosphate buffer pH 7.5. The reaction mixture was incubated at room temperature for 90 minutes with gentle shaking. The reaction was stopped by the addition of 100 μL of buffer. 500 μL of 5% freshly prepared activated charcoal was added to the solution and mixed well by vortexing. The samples were centrifuged at 17568×g for 5 minutes. (14000 rpm). The supernatant was carefully transferred to fresh tube and 1.3 mL of scintillation fluid was added, mixed by vortexing.
The radioactivity was measured in a 1450 MicroBeta TriLux™ scintillation counter from Wallac-Perkin Elmer®, USA. The measurements were carried out in 2.0 mL Eppendorf™ tubes. Each tube was counted for 1 minute. The amount of tritiated acetic acid released is proportional to the lyase activity. Percent lyase activity in presence of inhibitor was calculated using the formula given below.
[formula] • Sample: Enzyme reaction in presence of inhibitor. • Positive control: Enzyme reaction without inhibitor but containing DMSO at 1% final concentration. • Blank—Contains all reagents except enzyme. • % Inhibition=100%−% Lyase activity
For IC50 determination, the % inhibition was plotted as a function of inhibitor concentration. The data was fitted to sigmoidal equation using Graphpad Prism® software IV to generate IC50 values.

Row | Lyase IC 50 nM Human | SMILES
1 | Not active | O=C1c2ccc(F)cc2CCN1c1cnccc1C(F)(F)F [Example 78A, 6-fluoro-2-(4-(trifluoromethyl)pyridin-3-yl)-3,4-dihydroisoquinolin-1(2H)-one]

Same assay, conditions: human CYP17 lyase; substrate 0.25 μM; room temperature, 90 minutes; read-out: Lyase IC 50 nM Human

Row | SMILES | IC50
2 | Cc1ccncc1N1CCc2ccncc2C1=O [Example 65A, 2-(4-methylpyridin-3-yl)-3,4-dihydro-2,7-naphthyridin-1(2H)-one] | 1140 nM
3 | Cc1ccncc1N1CCc2ccc3ncsc3c2C1=O [Example 66A, 8-(4-methylpyridin-3-yl)-7,8-dihydrothiazolo[4,5-h]isoquinolin-9(6H)-one] | 11 nM
4 | Cc1ccncc1N1CCc2cnccc2C1=O [Example 67A, 2-(4-methylpyridin-3-yl)-3,4-dihydro-2,6-naphthyridin-1(2H)-one] | 716 nM
5 | O=c1c2cc(C(F)(F)F)ccc2ccn1-c1cncc(F)c1 [Example 68A, 2-(5-fluoropyridin-3-yl)-7-(trifluoromethyl)isoquinolin-1(2H)-one] | 282 nM
6 | Cc1ccncc1N1CCc2cc3cn[nH]c3cc2C1=O [Example 69A, 7-(4-methylpyridin-3-yl)-6,7-dihydro-1H-pyrazolo[4,3-g]isoquinolin-8(5H)-one] | 93 nM
7 | CCc1ccncc1N1CCc2ccc(Cl)cc2C1=O [Example 75A, 7-chloro-2-(4-ethylpyridin-3-yl)-3,4-dihydroisoquinolin-1(2H)-one] | 8 nM
8 | O=C1c2c(ccc(C(F)(F)F)c2F)CCN1c1cnccc1C(F)(F)F [Example 77A, 8-fluoro-7-(trifluoromethyl)-2-(4-(trifluoromethyl)pyridin-3-yl)-3,4-dihydroisoquinolin-1(2H)-one] | 167 nM
9 | Cc1ccncc1N1CCc2cc(F)c(Cl)cc2C1=O [Example 84A, 7-chloro-6-fluoro-2-(4-methylpyridin-3-yl)-3,4-dihydroisoquinolin-1(2H)-one] | 5.3 nM
10 | O=C1c2cc(C(F)(F)F)c(Cl)cc2CCN1c1cnccc1C(F)(F)F [Example 85A, 6-chloro-7-(trifluoromethyl)-2-(4-(trifluoromethyl)pyridin-3-yl)-3,4-dihydroisoquinolin-1(2H)-one] | 108 nM
11 | COc1cc2c(cc1Cl)C(=O)N(c1cnccc1C)CC2 [Example 86A, 7-chloro-6-methoxy-2-(4-methylpyridin-3-yl)-3,4-dihydroisoquinolin-1(2H)-one] | 11 nM
12 | Cc1ccncc1N1CCc2cc(C#N)c(Cl)cc2C1=O [Example 88A, 7-chloro-2-(4-methylpyridin-3-yl)-1-oxo-1,2,3,4-tetrahydroisoquinoline-6-carbonitrile] | 11 nM

Second part, the compound after the results:

Row | IC50 | SMILES
13 | 744 nM | CC1Cc2ccc(C(F)(F)F)cc2C(=O)N1c1cnccc1C(F)(F)F (stereo not shown) [Example 70A, 3-methyl-7-(trifluoromethyl)-2-(4-(trifluoromethyl)pyridin-3-yl)-3,4-dihydroisoquinolin-1(2H)-one]
14 | 730 nM | O=C1c2cc3[nH]ncc3cc2CCN1c1cnccc1C(F)(F)F [Example 72A, 7-(4-(trifluoromethyl)pyridin-3-yl)-6,7-dihydro-1H-pyrazolo[4,3-g]isoquinolin-8(5H)-one]
15 | 14 nM | O=C1c2cc(C(F)(F)F)ccc2CCN1c1cnccc1C1CC1 [Example 73A, 2-(4-cyclopropylpyridin-3-yl)-7-(trifluoromethyl)-3,4-dihydroisoquinolin-1(2H)-one]
16 | 23 nM | O=C1c2cc(Cl)ccc2CCN1c1cnccc1C1CC1 [Example 74A, 7-chloro-2-(4-cyclopropylpyridin-3-yl)-3,4-dihydroisoquinolin-1 (2H)-one]
17 | 4.2 nM | O=C1c2c(sc3ccccc23)CCN1c1cnccc1C1CC1 [Example 76A, 2-(4-cyclopropylpyridin-3-yl)-3,4-dihydrobenzo[4,5]thieno[3,2-c]pyridin-1(2H)-one]
18 | 19 nM | O=C1c2cc(I)c(F)cc2CCN1c1cnccc1C(F)(F)F [Example 79A, 6-fluoro-7-iodo-2-(4-(trifluoromethyl)pyridin-3-yl)-3,4-dihydroisoquinolin-1(2H)-one]
19 | 173 nM | O=C1c2cc(Cl)c(F)cc2CCN1c1cnccc1C(F)(F)F [Example 80A, 7-chloro-6-fluoro-2-(4-(trifluoromethyl)pyridin-3-yl)-3,4-dihydroisoquinolin-1(2H)-one]
20 | 3 nM | O=C1c2cc(Cl)c(F)cc2CCN1c1cnccc1C1CC1 [Example 82A, 7-chloro-2-(4-cyclopropylpyridin-3-yl)-6-fluoro-3,4-dihydroisoquinolin-1(2H)-one]
21 | 10 nM | COc1cc2c(cc1Cl)C(=O)N(c1cnccc1C1CC1)CC2 [Example 89A, 7-chloro-2-(4-cyclopropylpyridin-3-yl)-6-methoxy-3,4-dihydroisoquinolin-1(2H)-one]
22 | 11 nM | N#Cc1cc2c(cc1Cl)C(=O)N(c1cnccc1C1CC1)CC2 [Example 91A, 7-chloro-2-(4-cyclopropylpyridin-3-yl)-1-oxo-1,2,3,4-tetrahydroisoquinoline-6-carbonitrile]
